Tests used:
L1210 = test: In vitro inhibitory activity against L1210 cell growth; format: functional, cell-based; settings: Mus musculus
Thymidylate synthase = Thymidylate synthase (Mus musculus, UniProt P07607); test: In vitro inhibitory activity against thymidylate synthase partially purified from L1210 mouse leukemia cells; format: cell-based
[1] = Relative resistant ratio of compound as L1210:1565 IC50 over L1210 IC50; format: functional

Sequence of Thymidylate synthase (P07607 whole entry): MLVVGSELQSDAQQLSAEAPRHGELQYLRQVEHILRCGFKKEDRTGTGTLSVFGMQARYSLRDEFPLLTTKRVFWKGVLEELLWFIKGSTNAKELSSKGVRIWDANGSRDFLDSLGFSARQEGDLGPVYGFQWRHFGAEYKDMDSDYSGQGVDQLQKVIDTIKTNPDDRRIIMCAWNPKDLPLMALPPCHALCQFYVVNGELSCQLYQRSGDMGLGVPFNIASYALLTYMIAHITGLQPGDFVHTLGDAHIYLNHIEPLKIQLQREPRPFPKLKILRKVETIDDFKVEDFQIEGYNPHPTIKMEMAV

Row | SMILES | IC50 (L1210) | IC50 (Thymidylate synthase) | Ratio [1]
1 | C#CCN(Cc1ccc2nc(CN3CCOCC3)nc(O)c2c1)c1ccc(C(=O)NCc2cccc([N+](=O)[O-])c2)cc1 | 1900 nM | 380 nM | –
2 | C#CCN(Cc1ccc2nc(CC#N)nc(O)c2c1)c1ccc(C(=O)NCc2cccc([N+](=O)[O-])c2)cc1 | 11000 nM | 380 nM | –
3 | C#CCN(Cc1ccc2nc(CSc3ncccn3)nc(O)c2c1)c1ccc(C(=O)NC(CCC(=O)O)C(=O)O)cc1 (configuration not stated) | 100000 nM | – | –
4 | C#CCN(Cc1cc2c(O)nc(CSc3ncccn3)nc2cc1C)c1ccc(C(=O)NCc2cccc([N+](=O)[O-])c2)c(F)c1 | 640 nM | – | 0.65
5 | C#CCN(Cc1cc2c(O)nc(CN(CCO)CCO)nc2cc1C)c1ccc(C(=O)NCc2cccc([N+](=O)[O-])c2)c(F)c1 | 7800 nM | 160 nM | –
6 | C#CCN(Cc1cc2c(O)nc(CN(C)CCN(C)C)nc2cc1C)c1ccc(C(=O)NCc2cccc([N+](=O)[O-])c2)c(F)c1 | 950 nM | 200 nM | –
7 | C#CCN(Cc1ccc2nc(COCCOC)nc(O)c2c1)c1ccc(C(=O)NCc2cccc([N+](=O)[O-])c2)cc1 | 6700 nM | 640 nM | –
8 | C#CCN(Cc1ccc2nc(CNS(C)(=O)=O)nc(O)c2c1)c1ccc(C(=O)NCc2cccc([N+](=O)[O-])c2)cc1 | > 20000 nM | 180 nM | –
9 | C#CCN(Cc1ccc2nc(C)nc(O)c2c1)c1ccc(C(=O)NC(CCC(=O)O)C(=O)O)cc1 (configuration not stated) | 150 nM | – | –
10 | C#CCN(Cc1ccc2nc(CN)nc(O)c2c1)c1ccc(C(=O)NCc2cccc([N+](=O)[O-])c2)cc1 | > 20000 nM | > 1700 nM | –
11 | C#CCN(Cc1ccc2nc(CSc3nccc(O)n3)nc(O)c2c1)c1ccc(C(=O)NCc2cccc([N+](=O)[O-])c2)cc1 | 12000 nM | 3300 nM | –
12 | C#CCN(Cc1ccc2nc(CN(C)CCN(C)C)nc(O)c2c1)c1ccc(C(=O)NCc2cccc([N+](=O)[O-])c2)cc1 | 5000 nM | 820 nM | –
13 | C#CCN(Cc1cc2c(O)nc(CN3CCN(C)CC3)nc2cc1C)c1ccc(C(=O)NCc2cccc([N+](=O)[O-])c2)c(F)c1 | 580 nM | 110 nM | 1.1
14 | C#CCN(Cc1ccc2nc(CSc3nc(N)cc(O)n3)nc(O)c2c1)c1ccc(C(=O)NCc2cccc([N+](=O)[O-])c2)cc1 | 14000 nM | 1040 nM | –
15 | C#CCN(Cc1cc2c(O)nc(C)nc2cc1C)c1ccc(C(=O)NCc2cccc([N+](=O)[O-])c2)c(F)c1 | 260 nM | – | 1
16 | C#CCN(Cc1ccc2nc(CN3CCN(C)CC3)nc(O)c2c1)c1ccc(C(=O)NCc2cccc([N+](=O)[O-])c2)cc1 | 5300 nM | 900 nM | –
17 | C#CCN(Cc1cc2c(=O)[nH]c(CSc3ncccn3)nc2cc1C)c1ccc(C(=O)NCc2cccc([N+](=O)[O-])c2)c(F)c1 | – | 110 nM | –

Row | SMILES | IC50 (L1210) | IC50 (Thymidylate synthase) | Ratio [1]
18 | Cc1nc2cc(C)c(CN(C)c3ccc(C(=O)NCc4cccc([N+](=O)[O-])c4)c(F)c3)cc2c(=O)[nH]1 | 76 nM | 56 nM | –
19 | C#CCN(Cc1cc2c(O)nc(CO)nc2cc1C)c1ccc(C(=O)NCc2cccc([N+](=O)[O-])c2)c(F)c1 | 700 nM | 72 nM | 0.17
20 | C#CCN(Cc1ccc2nc(CN3CCC(O)C3)nc(O)c2c1)c1ccc(C(=O)NCc2cccc([N+](=O)[O-])c2)cc1 (configuration not stated) | 9000 nM | 600 nM | –
21 | C#CCN(Cc1cc2c(O)nc(CN3CCOCC3)nc2cc1C)c1ccc(C(=O)NCc2cccc([N+](=O)[O-])c2)c(F)c1 | 340 nM | 100 nM | 1.1
22 | C#CCN(Cc1ccc2nc(CO)nc(O)c2c1)c1ccc(C(=O)NCc2cccc([N+](=O)[O-])c2)cc1 | 4800 nM | 300 nM | –
23 | Cc1cc2nc(CN3CCN(C)CC3)nc(O)c2cc1CN(C)c1ccc(C(=O)NC(CCC(=O)O)C(=O)O)c(F)c1 (configuration not stated) | > 20000 nM | 28 nM | –
24 | C#CCN(Cc1ccc2nc(CCl)nc(O)c2c1)c1ccc(C(=O)NCc2cccc([N+](=O)[O-])c2)cc1 | 2400 nM | 1210 nM | –
25 | C#CCN(Cc1cc2c(O)nc(CN(C)C)nc2cc1C)c1ccc(C(=O)NCc2cccc([N+](=O)[O-])c2)c(F)c1 | 680 nM | – | 0.76
26 | Cc1cc2nc(CO)nc(O)c2cc1CN(C)c1ccc(C(=O)NCc2cccc([N+](=O)[O-])c2)c(F)c1 | 700 nM | 80 nM | –
27 | C#CCN(Cc1ccc2nc(C)nc(O)c2c1)c1ccc(C(=O)NCc2cccc([N+](=O)[O-])c2)cc1 | 1400 nM | – | 0.3
28 | C#CCN(Cc1cc2c(=O)[nH]c(CN(C)C)nc2cc1C)c1ccc(C(=O)NCc2cccc([N+](=O)[O-])c2)c(F)c1 | – | 140 nM | –
29 | C#CCN(Cc1ccc2nc(CN(C)C)nc(O)c2c1)c1ccc(C(=O)NCc2cccc([N+](=O)[O-])c2)cc1 | 2700 nM | 620 nM | –
30 | C#CCN(Cc1ccc2nc(C)nc(O)c2c1)c1ccc(C(=O)NC(Cc2cccc([N+](=O)[O-])c2)C(=O)O)cc1 (configuration not stated) | 9000 nM | 10 nM | –
31 | C#CCN(Cc1ccc2nc(CSc3nccc(N)n3)nc(O)c2c1)c1ccc(C(=O)NCc2cccc([N+](=O)[O-])c2)cc1 | 2200 nM | 840 nM | –
32 | Cc1cc2nc(CN(C)C)nc(O)c2cc1CN(C)c1ccc(C(=O)NCc2cccc([N+](=O)[O-])c2)c(F)c1 | 580 nM | 84 nM | –
33 | C#CCN(Cc1ccc2nc(CSc3ncccn3)nc(O)c2c1)c1ccc(C(=O)NCc2cccc([N+](=O)[O-])c2)cc1 | 2000 nM | 480 nM | –
34 | C#CCN(Cc1ccc2nc(CNC)nc(O)c2c1)c1ccc(C(=O)NCc2cccc([N+](=O)[O-])c2)cc1 | 7800 nM | 4200 nM | –

Reference: ChEMBL document CHEMBL1129474, “Quinazoline antifolates thymidylate synthase inhibitors: lipophilic analogues with modification to the C2-methyl substituent” (J Med Chem, 1996)
